Entries after “also recorded” stand apart in the source; their conditions may differ. Like-named read-outs stand apart in the source and are kept apart here.
Columns and labels:
Thompson Seedless Grapes [1] = test: Percentage bud break on fruiting canes, vineyard trial; type: in vivo, Vitis; details: for bud break on fruiting canes, efficacy: compared to the untreated check
Text: (§1) A portion of an established commercial vineyard was used for the study. The HBR (FIG. 1) treatments were replicated down a single row and arranged in sets of 3 vines per plot. Plots were flagged with colored ribbon to identify the treatments and there were 4 replicates each. Spray applications were made when the vines were still dormant on Day 0 (Feb. 12, 2019) or during the delayed dormant period, when buds were swollen or at eraser stage, on Day 24 (Mar. 8, 2019)). […] Crop injury was rated using a scale of 0-10, where 0=no injury and 10=100% of tree injured. Percentage bud break was evaluated by counting numbers of shoots from 30 nodes on fruiting canes from trunk to trunk and 5 renewal spurs were chosen non-systematically on Day 34 (Mar. 18, 2019) and Day 41 (Mar. 25, 2019).
Statistical differences were highly significant and variability in the data was low. Having waited until approximately 55 chill portions (a quantification of the aggregate low temperature exposure needed for a crop to break dormancy), the dormant sprays allowed both the Hydrogen Cyanamide (Dormex®) treated and untreated vines to accumulate the maximum chilling. […] Uniformity was enhanced by both Dormex® and 5 ppm ai HBR applied as a dormant spray. Variability was lowest in the untreated check by 41 DAA even though bud break had not reached 90%. It is not unusual for bud break to exceed 100% because secondary shoots were stimulated by the effects of overcoming apical dominance by both effective rest breaking and the accumulation of maximum chilling by untreated vines. FIGS. 6 and 7.

Thompson Seedless Grapes [2] = test: Percentage bud break on renewal spurs, vineyard trial; type: in vivo, Vitis; details: by 41 DAA
Text: as §1
However, the results were statistically significant between the rest breaking treatments as a group compared to the untreated check at both evaluation intervals. […] It appeared that spur bud break had peaked by 34 DAA because by 41 DAA, percentages were mostly the same. Only the untreated check continued to break buds, which remained approximately 15% lower than the rest breaking treatments as a group.

Thompson Seedless Grapes [3] = details: grapes and other fruit crops; cited from earlier work
laboratory animals = details: cited from earlier work; for toxicity: in vivo
[4] = label for 0.1% HBR; SDS from Alzchem; cited from earlier work
vines = details: cited from earlier work
nearby crops = details: in vivo; cited from earlier work
Thompson Seedless Grapes [5] = test: Crop injury / phytotoxicity observation; set-up: species or system Vitis; details: in vivo
Text: as §1

Thompson Seedless Grapes [6] = test: Number of shoots (overcoming apical dominance); type: in vivo, Vitis
Text: as §1

Thompson Seedless Grapes [7] = test: Fruit growth uniformity; set-up: species or system Vitis; details: in vivo

## N#CN [Dormex, Hydrogen Cyanamide, reference compound]
Thompson Seedless Grapes [1]; Dormex standard rate, dormant spray
  bud break uniformity: enhanced
Thompson Seedless Grapes [1]; in vivo
  amount needed to approach the effect of HBR, times: approximately 20,000 times
Thompson Seedless Grapes [2]
  spur bud break: < 100%
Thompson Seedless Grapes [3]
  phytotoxicity: can be phytotoxic
Laboratory animals; California EPA Department of Pesticide Regulation study
  adverse effects in laboratory animals: causes adverse effects in the liver, thyroid, kidney, ovaries, and testes
Laboratory animals
  toxicity: reported toxicity due to acute exposure; also recorded: can be acutely toxic when misused
[4]
  biodegradability: not readily biodegradable
vines; repeated use over the years
  lowering of the fruitability of vines: 20-30 % per year
Nearby crops
  effect on nearby crops: can damage nearby crops

## CC[C@@H](C(C)C)C(O)C(O)[C@@H](C)[C@H]1CC[C@H]2[C@@H]3COC(=O)[C@H]4C[C@H](O)[C@H](O)C[C@]4(C)[C@H]3CC[C@]12C (stereo in doubt) [HBR, homobrassinolide]
Thompson Seedless Grapes [1]; 1 ppm ai applied at early bud swell
  bud break on fruiting canes, efficacy: as effective as the standard rate of Dormex
Thompson Seedless Grapes [1]; 2 ppm ai applied at early bud swell
  bud break on fruiting canes, efficacy: as effective as the standard rate of Dormex
Thompson Seedless Grapes [1]; 5 ppm ai applied as a dormant spray
  bud break uniformity: enhanced
Thompson Seedless Grapes [1]; 5 ppm applied delayed dormant, 34 DAA
  bud break on fruiting canes, effects: statistically equivalent to the untreated check
Thompson Seedless Grapes [1]; in vivo
  active concentration range: nano molar to pico molar range
Thompson Seedless Grapes [2]; 2 ppm ai applied at bud swell
  spur bud break, effects: equivalent to the untreated check
Thompson Seedless Grapes [5]
  crop injury: without crop injury
  phytotoxicity: non-phytotoxic
Thompson Seedless Grapes [6]; 1 ppm ai
  shoots compared to control: increased shoots compared to control
Thompson Seedless Grapes [6]; 2 ppm ai
  shoots compared to control: increased shoots compared to control
Thompson Seedless Grapes [6]; 5 ppm ai
  shoots compared to control: increased shoots compared to control
Thompson Seedless Grapes [6]; both 1 ppm ai and 1 ppm ai treatments (so in the source)
  shoots compared to the standard treatment: comparable to the Hydrogen Cyanamide standard treatment
Thompson Seedless Grapes [6]; either dormant or delayed dormant spray applications
  number of shoots: increased number of shoots
Thompson Seedless Grapes [7]
  fruit growth uniformity: enhance fruit growth uniformity
Laboratory animals
  toxicity: non-toxic mode of action
vines; in vivo
  lowering of the fruitability of vines: no such effect
Nearby crops
  effect on nearby crops: no evidence that HBR has harmful effects on nearby crops

Reference: US20210022339A1, “USE OF DELAYED DORMANT APPLICATIONS OF HOMOBRASSINOLIDE ON GRAPES TO ENHANCE BUD BREAK” (priority 2019, published 2021)
